The values that follow come from patent US20260184663A1, “INDENE COMPOUNDS, PHARMACEUTICAL COMPOSITIONS THEREOF, AND THEIR THERAPEUTIC APPLICATIONS” (NucMito Pharmaceuticals co. Ltd., priority 2022, published 2026).

The structures appear in SMILES notation.

Common to all, as to type: cell-based
Assay [1] deals with MDA-MB-231 (breast cancer). The experiment in a line: Antiproliferative activity (CCK-8 cell viability), MDA-MB-231. To be noted: Homo sapiens, 72 h; for inhibition at 3.3 µM: Compound concentration: 3.3 μM; for inhibition at 3.3 µM / inhibition at 10 µM: read-out: Antiproliferative activity in cancerous cells, MDA-MB-231 (inhibition of cell growth); for inhibition at 10 µM: Compound concentration: 10 μM. The procedure, abridged:
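In this CCK-8 viability assay, MDA-MB-231 cells maintained in Dulbecco's modified Eagle's medium containing 10% fetal bovine serum were placed in 96-well plates (2,000-5,000 cells/well) and treated with compound for 72 h at 37° C. A 4 h incubation with 10 μL CCK-8 followed, plates were read at 450 nm, and viability was expressed against DMSO vehicle wells across replicates.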

The next assay concerns SW480 (colon cancer). Description: Antiproliferative activity (CCK-8 cell viability), SW480. To be noted: Homo sapiens, 72 h; for inhibition at 3.3 µM: Compound concentration: 3.3 μM; for inhibition at 3.3 µM / inhibition at 10 µM: read-out: Antiproliferative activity in cancerous cells, SW480 (inhibition of cell growth); for inhibition at 10 µM: Compound concentration: 10 μM. The procedure, abridged: (§1)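 Cells were seeded at 2,000-5,000/well (HeLa in MEM, HepG2 and SW480 in DMEM, A549 in F-12K, all with 10% FBS) and treated with compound at 3.3, 10 or 30 μM for 72 h at 37° C. CCK-8 was added for 4 h, absorbance was read at 450 nm, and viability was expressed relative to DMSO-treated wells.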

The subject of the next assay is HepG2 (liver cancer). The experiment in a line: Antiproliferative activity (CCK-8 cell viability), HepG2. To be noted: Homo sapiens, 72 h, read-out: Antiproliferative activity in cancerous cells, HepG2 (inhibition of cell growth); for inhibition at 3.3 µM: Compound concentration: 3.3 μM; for inhibition at 10 µM: Compound concentration: 10 μM. The procedure, abridged: as §1

The test system of assay [2] is B16F10 (malignant melanoma). The experiment in a line: Antiproliferative activity (CCK-8 cell viability), B16F10. To be noted: Mus musculus, 72 h, read-out: Antiproliferative activity in cancerous cells, B16F10 (inhibition of cell growth); for inhibition at 3.3 µM: B16-F10, Compound concentration: 3.3 μM; for inhibition at 10 µM: B16-F10, Compound concentration: 10 μM. The procedure, abridged: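 Attached B16F10 cells in 96-well plates were incubated with compound at 37° C for 72 h, followed by 10 μL CCK-8 reagent per well and a further 4 h incubation. A multi-well plate reader measured absorbance at 450 nm. Percent viability across replicates was calculated against DMSO vehicle-treated cells.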

For assay [3], the system named is A549 (lung adenocarcinoma). Description: Antiproliferative activity (CCK-8 cell viability), A549. To be noted: Homo sapiens, 72 h, read-out: Antiproliferative activity in cancerous cells, A549 (inhibition of cell growth); for inhibition at 3.3 µM: Compound concentration: 3.3 μM; for inhibition at 10 µM: Compound concentration: 10 μM. The procedure, abridged:
as §1

Assay [4] deals with A431 (epidermoid carcinoma). The experiment in a line: Antiproliferative activity (CCK-8 cell viability), A431. To be noted: Homo sapiens, 72 h, read-out: Antiproliferative activity in cancerous cells, A431 (inhibition of cell growth); for inhibition at 3.3 µM: A-431, Compound concentration: 3.3 μM; for inhibition at 10 µM: A-431, Compound concentration: 10 μM. The procedure, abridged:
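Cell viability of compound-treated A431 cells was measured with a Cell Counting Kit-8. Each well received 10 μL of CCK-8 after 72 h of compound exposure, followed by 4 h incubation at 37° C. and a 450 nm plate-reader measurement. Percent viability was calculated relative to DMSO controls across replicates.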

Another assay relates to HeLa (cervical cancer). Description: Antiproliferative activity (CCK-8 cell viability), HeLa. To be noted: Homo sapiens, 72 h, read-out: Antiproliferative activity in cancerous cells, HELA (inhibition of cell growth); for inhibition at 3.3 µM: Compound concentration: 3.3 μM; for inhibition at 10 µM: Compound concentration: 10 μM. The essentials:
as §1

Consider `CC1=C(CC(=O)O)c2cc(C)ccc2/C1=C\c1ccc(CCCc2ccc(Cl)cc2)cc1` [B123, (Z)-2-(1-(4-(3-(4-Chlorophenyl)propyl)benzylidene)-2,5-dimethyl-1H-inden-3-yl)acetic acid], for which the inhibition at 3.3 µM in assay [1] was below 30%; in the assay on SW480 (colon cancer) it was 30 to 50%; with HepG2 (liver cancer), 30 to 50%; in assay [2] it was at least 50%; in assay [3] it was at least 50%; in assay [4], at least 50%. The inhibition at 3.3 µM in the assay with HeLa (cervical cancer) was below 30%. In addition, the inhibition at 10 µM (in assay [1]; in the assay with SW480 (colon cancer); in the assay on HepG2 (liver cancer); in assay [2]; in assay [3]; in assay [4]) was at least 50% each time. In the assay with HeLa (cervical cancer), the inhibition at 10 µM is at least 50%.
Take `CC1=C(CC(=O)O)c2cc(Cl)ccc2/C1=C\c1ccc(CCCc2ccc(F)cc2)cc1` [B125, (Z)-2-(5-Chloro-1-(4-(3-(4-fluorophenyl)propyl)benzylidene)-2-methyl-1H-inden-3-yl)acetic acid]: the inhibition at 3.3 µM in assay [1] is 30 to 50%; in the assay on SW480 (colon cancer), below 30%; in the assay on HepG2 (liver cancer), at least 50%; in assay [2], at least 50%; in assay [3], below 30%; in assay [4] it was at least 50%. For the same compound, in the assay with HeLa (cervical cancer), the inhibition at 3.3 µM is at least 50%. The inhibition at 10 µM (in assay [1]; with SW480 (colon cancer); in the assay on HepG2 (liver cancer); in assay [2]; in assay [3]; in assay [4]) was at least 50% throughout. Further, in the assay with HeLa (cervical cancer), the inhibition at 10 µM is at least 50%.
Regarding `COc1ccc(CCCc2ccc(/C=C3/C(C)=C(CC(=O)O)c4cc(F)ccc43)cc2)cc1` [B126, (Z)-2-(5-Fluoro-1-(4-(3-(4-methoxyphenyl)propyl)benzylidene)-2-methyl-1H-inden-3-yl)acetic acid], the inhibition at 3.3 µM in assay [1] is at least 50%; in the assay on SW480 (colon cancer), below 30%; in the assay on HepG2 (liver cancer), 30 to 50%; in assay [2], below 30%; in assay [3] it was below 30%; in assay [4], below 30%. In the assay on HeLa (cervical cancer), the inhibition at 3.3 µM fell in the range of 30 to 50%. The inhibition at 10 µM (in assay [1]; in the assay with SW480 (colon cancer); in the assay with HepG2 (liver cancer); in assay [2]; in assay [3]; in assay [4]) was at least 50% each time. In addition, the inhibition at 10 µM in the assay with HeLa (cervical cancer) is at least 50%.
In the case of `COc1ccc(CCCc2ccc(/C=C3/C(C)=C(CC(=O)O)c4cc(Cl)ccc43)cc2)cc1` [B127, (Z)-2-(5-Chloro-1-(4-(3-(4-methoxyphenyl)propyl)benzylidene)-2-methyl-1H-inden-3-yl)acetic acid], the inhibition at 3.3 µM in assay [1] was at least 50%; in the assay on SW480 (colon cancer), below 30%; with HepG2 (liver cancer), at least 50%; in assay [2] it was at least 50%; in assay [3], at least 50%; in assay [4], at least 50%. Further, the inhibition at 3.3 µM in the assay on HeLa (cervical cancer) is at least 50%. Besides, the inhibition at 10 µM (in assay [1]; in the assay with SW480 (colon cancer); with HepG2 (liver cancer); in assay [2]; in assay [3]; in assay [4]) was at least 50% throughout. In addition, the inhibition at 10 µM in the assay with HeLa (cervical cancer) was at least 50%.
Take `COc1ccc(CCCc2ccc(/C=C3/C(C)=C(CC(=O)O)c4cc(Br)ccc43)cc2)cc1` [B128, (Z)-2-(5-Bromo-1-(4-(3-(4-methoxyphenyl)propyl)benzylidene)-2-methyl-1H-inden-3-yl)acetic acid]: the inhibition at 3.3 µM (in assay [1]; with SW480 (colon cancer); in the assay on HepG2 (liver cancer); in assay [2]; in assay [3]; in assay [4]) was at least 50% throughout. The inhibition at 3.3 µM in the assay with HeLa (cervical cancer) was at least 50%. In addition, the inhibition at 10 µM (in assay [1]; in the assay on SW480 (colon cancer); with HepG2 (liver cancer); in assay [2]; in assay [3]; in assay [4]) was at least 50% in each case. In addition, in the assay on HeLa (cervical cancer), the inhibition at 10 µM was at least 50%.
For `CC1=C(CC(=O)O)c2cc(F)ccc2/C1=C\c1ccc(CCCc2ccc(O)cc2)cc1` [B129, (Z)-2-(5-Fluoro-1-(4-(3-(4-hydroxyphenyl)propyl)benzylidene)-2-methyl-1H-inden-3-yl)acetic acid], the inhibition at 3.3 µM in assay [1] was at least 50%; in the assay on SW480 (colon cancer), below 30%; in the assay with HepG2 (liver cancer), below 30%; in assay [2], at least 50%; in assay [3] it was 30 to 50%; in assay [4], below 30%. In addition, the inhibition at 3.3 µM with HeLa (cervical cancer) is below 30%. In addition, the inhibition at 10 µM in assay [1] is at least 50%; in the assay on SW480 (colon cancer), below 30%; in the assay on HepG2 (liver cancer), at least 50%; in assay [2], at least 50%; in assay [3], at least 50%; in assay [4], at least 50%. For the same compound, the inhibition at 10 µM in the assay on HeLa (cervical cancer) was at least 50%.
With `CC1=C(CC(=O)O)c2cc(F)ccc2/C1=C\c1ccc(CCc2ccc(F)cc2)cc1` [B145, (Z)-2-(5-Fluoro-1-(4-(4-fluorophenethyl)benzylidene)-2-methyl-1H-inden-3-yl)acetic acid], the inhibition at 3.3 µM is below 30% in assay [1]; below 30% with SW480 (colon cancer); below 30% in the assay on HepG2 (liver cancer); below 30% in assay [2]; below 30% in assay [3]; at least 50% in assay [4]. The inhibition at 3.3 µM in the assay with HeLa (cervical cancer) is 30 to 50%. The inhibition at 10 µM in assay [1] is below 30%; with SW480 (colon cancer), below 30%; with HepG2 (liver cancer) it was at least 50%; in assay [2], below 30%; in assay [3], below 30%; in assay [4], at least 50%. Moreover, the inhibition at 10 µM with HeLa (cervical cancer) was at least 50%. In addition, the inhibition at 30 µM with SW480 (colon cancer) (Compound concentration: 30 μM, read-out: Antiproliferative activity in cancerous cells, SW480) was in the range of 30 to 50%.
As to `CC1=C(CC(=O)O)c2cc(C)ccc2/C1=C\c1ccc(CCc2ccccc2)cc1` [B147, (Z)-2-(2,5-Dimethyl-1-(4-phenethylbenzylidene)-1H-inden-3-yl)acetic acid], the inhibition at 3.3 µM in assay [1] is below 30%; in the assay with SW480 (colon cancer) it was below 30%; in the assay with HepG2 (liver cancer), below 30%; in assay [2], below 30%; in assay [3] it was below 30%; in assay [4] it was at least 50%. For the same compound, the inhibition at 3.3 µM with HeLa (cervical cancer) was below 30%. In addition, the inhibition at 10 µM in assay [1] was below 30%; in the assay on SW480 (colon cancer) it was at least 50%; with HepG2 (liver cancer) it was at least 50%; in assay [2] it was at least 50%; in assay [3], at least 50%; in assay [4], at least 50%. For the same compound, the inhibition at 10 µM in the assay with HeLa (cervical cancer) is at least 50%. Moreover, the inhibition at 30 µM in assay [1] (Compound concentration: 30 μM, read-out: Antiproliferative activity in cancerous cells, MDA-MB-231) was 30 to 50%.
